Patent publication US20220033405A1, “PHARMACEUTICAL COMPOSITION FOR PREVENTING OR TREATING CANCER CONTAINING PLK1 INHIBITOR AS ACTIVE INGREDIENT” (NATIONAL CANCER CENTER, priority 2018, published 2022)

Assay: Toxicity test, histopathological analysis of organs
Assay type: in vivo, mouse
Settings: 1, 5 and 10 mg/kg intraperitoneally 3 times weekly, 2 weeks
Procedure: Compound 4 (M21) was diluted in 300 μl of PBS and intraperitoneally injected 3 times weekly at 1 mg/kg, 5 mg/kg and 10 mg/kg per body weight of a mouse, respectively, and DMSO diluted in 300 μl of PBS was intraperitoneally injected at 3% in the control. After 2 weeks, the lungs, heart, liver, kidneys, spleen and skin were removed by sacrificing mice, and fixed in a formalin solution.

For Cn1c2nc(=O)[nH]c(=O)c-2nc2cc(C(F)(F)F)ccc21 [Compound 4, 10-methyl-7-(trifluoromethyl)-2H,3H,4H,10H-benzo[g]pteridine-2,4-dione], the “histopathological analysis of lungs, heart, liver, kidneys, spleen and skin” value was “No change by separate acute toxicity was observed”.
